Results taken from publication PMC3606385 (PLoS ONE, 2013).
“Also recorded” adds a separate entry of the source. Read-outs that look alike come from different tables or passages of the source.

How the values were obtained:
Rat 11β-HSD1 = biological target: T1, Rat 11β-HSD1 (Rattus norvegicus, UniProt P16232); assay: 11β-HSD1 assay in intact rat Leydig cells; assay type: cell-based; details: intact rat Leydig cells
T1 construct: endogenous in cells; host or cells: primary adult Sprague-Dawley rat Leydig cells
Experimental: Rat Leydig cells contain the highest 11β-HSD1 activity in all cell types of rat tissues, and were used for rat 11β-HSD1 enzyme sources. Purified rat Leydig cells were obtained from 90-day-old Sprague-Dawley rats by collagenase digestion of the testes followed by Percoll density centrifugation of the cell suspension, according to the previously described method. […] The purity of cell fractions was evaluated by histochemical staining for 3β-hydroxysteroid dehydrogenase activity with […] etiocholanolone as the steroid substrate.
(§1) 11β-HSD1 reductase activity was performed in intact cells using endogenous cofactor NADPH as described previously. […] 25×10^3 cells were added to each tube to initiate the reaction and the reaction mixture was incubated for up to 2 hrs, during which the reaction is within the linear range. At the end of reaction, the reaction was stopped by adding 2 ml ice-cold ether. The steroids were extracted, and the organic layer was dried under nitrogen. The steroids were separated chromatographically on thin layer plates in chloroform and methanol (90∶10, v/v), and the radioactivity was measured using a scanning radiometer (System AR2000, Bioscan Inc., Washington, DC) as described previously. The percentage conversion of 11DHC to CORT or cortisone to cortisol was calculated by dividing the radioactive counts identified as 11-OH-steroids by the total counts.
(§2) The IC50 was determined by adding different concentrations of each compound in the 11β-HSD1 or 11β-HSD2 reaction as described. The mode of inhibition was assayed by adding various concentrations of steroid substrates in the presence of an inhibitor as described.

Human 11β-HSD1 [1] = biological target: T2, Human 11β-HSD1 (Homo sapiens, UniProt P28845); assay: 11β-HSD1 assay in intact CHOP cells transfected with human HSD11B1; assay type: cell-based
T2 construct: expressed in transfected cells; host or cells: CHOP cells (transient, FuGENE)
Experimental: An expression plasmid was constructed to express human 11β-HSD1 (HSD11B1) cDNA in pcDNA I expression vector from its original human HSD11B1 vector (pBluescriptSK+).[15]. The Escherichia coli transformants carrying an insert were selected by colony hybridization, and a clone with the insert in the correct orientation relative to the vector T7 promoter was identified by restriction mapping. All transfections were carried out on 80% confluent cultures in 12-well plates. Aliquots of 1 µg HSD11B1 pcDNA I were transfected into mammalian CHOP cells with the FuGENE Transfection Reagent (Roche) according to manufacturer's protocol. Cells were allowed to grow for 24 hours in media containing 10% fetal bovine serum. Then media were removed and cells were harvested for 11β-HSD1 activity assay.
as §1, §2

Rat 11β-HSD2 = biological target: T3, Rat 11β-HSD2 (Rattus norvegicus, UniProt P50233); assay: 11β-HSD2 assay in rat kidney microsomes; assay type: biochemical
T3 construct: from tissue; host or cells: rat kidney microsomes
T3 sequence (P50233 1-400): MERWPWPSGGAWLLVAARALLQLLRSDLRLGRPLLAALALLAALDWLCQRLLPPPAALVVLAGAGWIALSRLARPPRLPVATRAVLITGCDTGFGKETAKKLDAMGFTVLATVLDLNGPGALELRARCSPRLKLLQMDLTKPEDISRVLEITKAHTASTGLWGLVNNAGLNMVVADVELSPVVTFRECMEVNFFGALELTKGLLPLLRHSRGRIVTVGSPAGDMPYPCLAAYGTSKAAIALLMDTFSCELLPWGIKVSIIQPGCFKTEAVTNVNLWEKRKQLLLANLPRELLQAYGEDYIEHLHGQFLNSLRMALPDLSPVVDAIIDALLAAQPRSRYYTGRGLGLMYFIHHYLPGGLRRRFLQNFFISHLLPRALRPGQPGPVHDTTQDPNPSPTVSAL
Experimental: Rats were euthanized by CO2, and livers, testes and kidneys were collected. Rat liver, testis and kidney microsomes were prepared as described previously. In brief, rat liver and kidney were homogenized in […] PBS buffer containing 0.25 M sucrose, and nuclei and large cell debris were removed by centrifugation at 1500× g for 10 min. The post-nuclear supernatants were centrifuged twice at 105,000×g, the resultant microsomal pellets were resuspended. Protein contents were measured by Bio-Rad Dye Reagent Concentrate (Cat.#500-0006). Microsomes were used for measurement of 11β-HSD1 and 11β-HSD2 activities.
The rat and human kidney microsomes were used for 11β-HSD2 sources. 11β-HSD2 activity was performed in the microsome according to a previously described method. […] 8 (rat) or 20 (human) µg kidney microsomes were added to each tube to initiate the reaction and the reaction mixture was incubated for up to 3 hrs, during which the reaction is within the linear range. The rest procedure was similar to 11β-HSD1 assay. The percentage conversion of CORT to 11DHC or cortisol to cortisone was calculated by dividing the radioactive counts identified as 11keto-steroids by the total counts.
as §2

Human 11β-HSD2 [2] = biological target: T4, Human 11β-HSD2 (Homo sapiens, UniProt P80365); assay: 11β-HSD2 assay in human kidney microsomes; assay type: biochemical
T4 construct: tissue Gentest (Woburn, MA); host or cells: human kidney microsomes
T4 sequence (P80365 1-405): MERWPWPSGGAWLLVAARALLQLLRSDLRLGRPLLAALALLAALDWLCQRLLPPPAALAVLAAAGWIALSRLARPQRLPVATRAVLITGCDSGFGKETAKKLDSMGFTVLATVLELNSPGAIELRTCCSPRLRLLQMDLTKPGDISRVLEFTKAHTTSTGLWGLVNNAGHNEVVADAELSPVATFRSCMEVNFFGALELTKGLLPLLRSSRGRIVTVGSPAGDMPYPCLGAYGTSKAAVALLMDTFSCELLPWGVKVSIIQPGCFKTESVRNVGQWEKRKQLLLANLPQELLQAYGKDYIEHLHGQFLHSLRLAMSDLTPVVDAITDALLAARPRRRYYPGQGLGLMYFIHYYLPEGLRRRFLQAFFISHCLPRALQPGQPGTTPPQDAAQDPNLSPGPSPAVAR
Experimental: The rat and human kidney microsomes were used for 11β-HSD2 sources. 11β-HSD2 activity was performed in the microsome according to a previously described method. In brief, the assay tubes contained 25 nM substrate CORT (for rat) or cortisol (for human), spiked with 30,000 cpm their respective ^3H-11β-hydroxyl steroid, 0.2 mM NAD+ and 0.1 mM DTT in the PBS buffer. 8 (rat) or 20 (human) µg kidney microsomes were added to each tube to initiate the reaction and the reaction mixture was incubated for up to 3 hrs, during which the reaction is within the linear range. The rest procedure was similar to 11β-HSD1 assay. The percentage conversion of CORT to 11DHC or cortisol to cortisone was calculated by dividing the radioactive counts identified as 11keto-steroids by the total counts.
as §2

[3] = biological target: T5, rat liver microsomal 11β-HSD1 (Rattus norvegicus, UniProt P16232); assay: Mode of inhibition (Lineweaver-Burk), rat liver microsomal 11β-HSD1; assay type: biochemical; details: Lineweaver-Burk plot, substrate 11DHC
T5 construct: Rat liver, testis and kidney microsomes were prepared as described previously; from tissue; host or cells: rat liver microsomes
Experimental: (§3) The rat testis and liver or human liver microsomes were used for 11β-HSD1 assay. 11β-HSD1 activity was performed in the microsome according to a previously described method. In brief, the assay tubes contained 25 nM substrate 11DHC (for rat) or cortisone (for human), spiked with 30,000 cpm their respective ^3H-11keto-steroid, 0.2 mM NADPH and 5 mM glucose-6-phosphaare in the PBS buffer. 2 µg microsomes were added to each tube to initiate the reaction and the reaction mixture was incubated for up to 2 hrs, during which the reaction is within the linear range. The rest procedure was similar to 11β-HSD1 assay in intact cells.
as §2
(§4) Enzyme data were subjected to nonlinear analysis by GraphPad (Version 5, GraphPad Software Inc., San Diego, CA) for IC50. Lineweaver-Burk plot was used for the mode of inhibition. Data were subjected to analysis by one-way ANOVA followed by Tukey's multiple comparisons testing to identify significant differences between groups when three were calculated. Differences were regarded as significant at P<0.05.

human liver 11β-HSD1 = biological target: T6, human liver 11β-HSD1 (Homo sapiens, UniProt P28845); assay: Mode of inhibition, human liver 11β-HSD1; assay type: biochemical; details: data not shown
T6 construct: tissue Gentest (Woburn, MA); host or cells: human liver microsomes
Experimental: as §3, §2, §4

mouse 11β-HSD1 = details: cited from earlier work
hyperglycemic KKAy mouse = test system: hyperglycemic KKAy mouse; set-up: method as in PMID 12190302; details: hyperglycemic KKAy mouse model; cited from earlier work
Human 11β-HSD1 [4] = biological target: T2, Human 11β-HSD1; details: cited from earlier work
Human 11β-HSD2 [5] = biological target: T4, Human 11β-HSD2; details: cited from earlier work
mouse 11β-HSD2 = test system: mouse 11β-HSD2; set-up: method as in PMID 16103409; details: cited from earlier work

T2 sequence (P28845 whole entry): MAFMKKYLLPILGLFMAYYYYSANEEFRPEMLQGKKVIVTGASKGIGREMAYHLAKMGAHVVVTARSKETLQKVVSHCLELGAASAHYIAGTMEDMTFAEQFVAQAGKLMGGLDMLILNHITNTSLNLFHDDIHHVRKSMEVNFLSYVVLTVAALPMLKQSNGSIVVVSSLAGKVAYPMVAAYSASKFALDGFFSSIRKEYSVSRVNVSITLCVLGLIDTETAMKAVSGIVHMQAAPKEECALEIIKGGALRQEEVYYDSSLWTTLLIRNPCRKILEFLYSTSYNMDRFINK
T6 sequence (P28845 whole entry): as above
T5 sequence (P16232 whole entry): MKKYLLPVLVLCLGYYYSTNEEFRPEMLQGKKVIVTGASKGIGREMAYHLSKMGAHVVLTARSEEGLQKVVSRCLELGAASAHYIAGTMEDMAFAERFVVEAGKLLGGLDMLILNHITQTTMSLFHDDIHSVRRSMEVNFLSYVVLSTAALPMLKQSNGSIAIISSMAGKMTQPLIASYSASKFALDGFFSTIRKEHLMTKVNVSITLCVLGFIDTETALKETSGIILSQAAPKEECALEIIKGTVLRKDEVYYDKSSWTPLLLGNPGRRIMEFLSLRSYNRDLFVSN
T1 sequence (P16232 whole entry): as above

Q: What does the source list for `O=C(/C=C/c1cccs1)/C=C/c1cccs1` [compound 6, (1E,4E)-1,5-bis(thiophen-2-yl) penta-1,4-dien-3-one]?
A: Rat 11β-HSD1 Potency to Curcumin (fold) (Rat 11β-HSD1; relative to curcumin): 31.44 fold; IC50 (Rat 11β-HSD1; read-out: Rat 11β-HSD1 IC50 (nM) in Leydig cells): 184 nM; Human 11β-HSD1 Potency to Curcumin (fold) (Human 11β-HSD1 [1]; CHOP cells transfected with human HSD11B1, relative to curcumin): 24.68 fold; IC50 (Human 11β-HSD1 [1]; CHOP cells transfected with human HSD11B1, read-out: Human 11β-HSD1 IC50 (nM) in CHOP cells): 93 nM; Inhibition of rat 11β-HSD2 at 100 µM (Rat 11β-HSD2; 100 µM): did not inhibit; IC50 (Rat 11β-HSD2; rat kidney microsomes): > 100000 nM; Inhibition of human 11β-HSD2 at 100 µM (Human 11β-HSD2 [2]; 100 µM): did not inhibit; IC50 (Human 11β-HSD2 [2]; human kidney microsomes, read-out: IC50 (nM) Human 11β-HSD2): > 100000 nM; Mode of inhibition of rat 11β-HSD1 [3]: competitive mode; also recorded: competitive inhibitor; Mode of inhibition of human 11β-HSD1 (human liver 11β-HSD1): same mode; also recorded: competitive inhibitor

Q: With BVT2733 as the compound, how does the IC50 (mouse 11β-HSD1; mouse enzyme) read?
A: 96 nM

Q: And the “Effect on blood glucose level” value (hyperglycemic KKAy mouse)?
A: significantly lowered

Q: For `C1CCc2nnc(C34CC5CC(CC(C5)C3)C4)n2CC1` [MK544], which IC50 (Human 11β-HSD1 [4]) is on record?
A: 7.8 nM

Q: And the IC50 (mouse 11β-HSD1)?
A: 98 nM

Q: What about the “Selectivity over human 11β-HSD2” value (Human 11β-HSD2 [5]) of the same compound?
A: > 450 fold

Q: And the “Selectivity over mouse 11β-HSD2” value (mouse 11β-HSD2)?
A: > 100 fold
